Assay results from US10030025B2, “Substituted [1,2,4]triazolo[4,3-a]pyrazines as selective NK-3 receptor antagonists” (EUROSCREEN SA, priority 2013, dated 2018).

Columns and labels:
[1] = system: circulating levels of luteinizing hormone (LH); experiment: Castrated male rat model, circulating luteinizing hormone (LH); assay type: in vivo; settings: castrated male SD rats, single oral dose less than or equal to 30 mg/kg, p<0.05
Description: Castrated male rat model to assess the effect of compound of invention on circulating levels of luteinizing hormone (LH)
The effect of compounds of the invention to inhibit luteinizing hormone (LH) secretion is determined by the following biological studies.
In humans and rodents, castration is well-precedented to permit heightened, persistent GnRH signaling and consequent elevation of circulating LH. Thus, a castrated rat model is used to provide a broad index for measurement of LH inhibition as a marker of test compound inhibition of the GnRH signaling pathway.
Castrated adult male Sprague-Dawley (SD) rats (150-175 g) were purchased from Janvier (St Berthevin, France). All animals were housed 2 per cage in a temperature-controlled room (22±2° C.) and 50±5% relative humidity with a 12 hour/12 hour light/dark cycles (lights off at 6h00 pm). The animals were allowed 3 weeks of postoperative recovery prior to study. Animals were handled on a daily basis. Standard diet and tap water were provided ad libitum. Animal cage litters were changed once a week. On the study day, animals were acclimated to the procedure room for a period of one hour prior to the initiation of the experiment.
Compounds of the invention were formulated in 0.5% methyl cellulose.
After basal sampling (T0) a single dose of compounds of the invention or vehicle was administrated orally to rats. Blood samples were then collected at several time points post dosing (45, 90, 150, 300 and 420 minutes). Blood samples were obtained via tail vein bleed, drawn into EDTA-containing tubes and centrifuged immediately. Plasma samples were collected and stored in a −80° C. freezer until assayed. Serum LH levels were determined using radioimmunoassay kit from RIAZEN—Rat LH, Zentech (Liège, Belgium). Baseline was defined as the initial basal blood sample.

[2] = system: plasma estradiol levels; experiment: Estradiol circulating level in female rats; assay type: in vivo, rat; settings: adult female rats, 10 mg/kg b.i.d. oral, 10 days, two consecutive estrous cycles
Description: The aim of this study was to evaluate the effect of compounds of the invention on plasma estradiol levels following oral administration at 10 mg/kg (b.i.d.) for a period of 10 days in female rats.
Two groups of adult, female rats (Sprague-Dawley, ˜320 g) were treated in-phase with their individual estrous cycles. Thus, treatment was started in the proestrus phase (coincident with peak estradiol levels, as shown on Day 1 in FIG. 3) and rats were dosed twice daily (˜9h30 and 17h30) by oral administration either with a compound of the invention at 10 mg/kg or with the vehicle for the control group. Compounds of the invention were prepared in a dose formulation of pyrogen-free water with 0.5% methylcellulose. Estradiol levels were determined for all groups by ELISA performed on plasma samples derived from blood collections taken at 30 minutes before the daily, 9h30 test article administration on all days presented in FIG. 3.

[3] = system: plasma testosterone; experiment: Plasma testosterone in gonad intact male rats; assay type: in vivo, rat; settings: gonad intact male SD rats, 3 mg/kg single oral administration, vs vehicle, over the test period
Description: The study was designed to evaluate the effect of compounds of the invention on testosterone circulating levels following oral administration at 3 mg/kg on SD gonad intact male rats.
Two groups of non-fasted rats (male, Sprague-Dawley, 200 to 225 g; n=4 rats/group) with jugular vein cannulation, were dosed via a single oral administration of compounds of the invention at 3 mg/kg. The control group was dosed with the vehicle. Compounds of the invention were prepared in a dose formulation of pyrogen-free water with 0.5% methylcellulose. Blood samples were collected via the catheter implanted in the jugular vein at pre-determined intervals using EDTA-3K as anti-coagulant. Samples were chilled and rapidly processed by centrifugation to obtain corresponding plasma samples. Testosterone hormone levels were determined by RIA performed on plasma samples collected for all the groups at 5 minutes before administration (basal time), and at 45, 90, 150, 300, 480 minutes and 24 hours after dosing.

[4] = system: body temperature; experiment: Thermoregulation in ovariectomized (OVX) ewes; assay type: in vivo, ewe; settings: 1 mg/kg intravenous bolus
Source text: After 4 months recovery, animals were acclimatised to housing in single pens for a period of 7 days with ad libitum access to water and […] lucerne hay. One day prior to experimentation, the animals received a jugular vein cannula ([…], Tuta Laboratories, Lane Cove, Australia). The cannulae were kept patent with heparinised saline. On the day of the experiment, compound no 5 of the present invention was formulated in physiological saline with 9% 2-hydroxypropyl-β-cyclodextrin at a concentration of 2 mg/mL. Compound no 5 (1 mg/kg, N=5) or vehicle (N=5) was administered at 11h00 by intravenous bolus injection at a dose volume of 0.5 mL/kg through the jugular cannula and the injected material was flushed into the animal with 5 mL of heparinised saline. Animals were fed at 12h00. Rectal temperatures were monitored with a probe at hourly intervals throughout the experiment, starting at 7h40 and concluding at 15h40. […] However, this pyrogenic response to feeding in ovarectomized ewes was not observed in any animals treated with compound no 5. […] Graphical data presented as mean±SEM for vehicle-treated versus compound no 5-treated ewes (N=5/group). Statistical analyses performed by 2-way ANOVA followed by Sidak's Multiple Comparisons Test between treatment groups at the indicated time interval, *p<0.05.

SMILES	Effect on circulating LH levels [1]	other results
Cc1nsc(-c2nnc3n2CCN(C(=O)c2ccc(Cl)c(Cl)c2)[C@@H]3C)n1 [Compound 1, (R)-(3,4-dichlorophenyl)(8-methyl-3-(3-methyl-1,2,4-thiadiazol-5-yl)-5,6-dihydro-[1,2,4]triazolo[4,3-a]pyrazin-7(8H)-yl)methanone]	significantly suppressed circulating LH levels	
CCc1nsc(-c2nnc3n2CCN(C(=O)c2ccc(F)cc2)[C@@H]3C)n1 [Compound 2, (R)-(3-(3-ethyl-1,2,4-thiadiazol-5-yl)-8-methyl-5,6-dihydro-[1,2,4]triazolo[4,3-a]pyrazin-7(8H)-yl)(4-fluorophenyl)methanone]	significantly suppressed circulating LH levels	
Cc1nsc(-c2nnc3n2CCN(C(=O)c2ccc(Cl)c(F)c2)[C@@H]3C)n1 [Compound 4, (R)-(4-chloro-3-fluorophenyl)(8-methyl-3-(3-methyl-1,2,4-thiadiazol-5-yl)-5,6-dihydro-[1,2,4]triazolo[4,3-a]pyrazin-7(8H)-yl)methanone]	significantly suppressed circulating LH levels	
Cc1nsc(-c2nnc3n2CCN(C(=O)c2ccc(F)cc2)[C@@H]3C)n1 [Compound 5, (R)-(4-fluorophenyl)(8-methyl-3-(3-methyl-1,2,4-thiadiazol-5-yl)-5,6-dihydro-[1,2,4]triazolo[4,3-a]pyrazin-7(8H)-yl)methanone]	significantly suppressed circulating LH levels	Effect on estradiol levels [2]: significantly decreased estradiol levels; Effect on plasma testosterone level [3]: significantly suppressed plasma testosterone level; Pyrogenic response to feeding [4]: not observed
Cc1nsc(-c2nnc3n2CCN(C(=O)c2ccc(F)c(F)c2F)[C@@H]3C)n1 [Compound 8, (R)-(8-methyl-3-(3-methyl-1,2,4-thiadiazol-5-yl)-5,6-dihydro-[1,2,4]triazolo[4,3-a]pyrazin-7(8H)-yl)(2,3,4-trifluorophenyl)methanone]	significantly suppressed circulating LH levels	
Cc1nsc(-c2nnc3n2CCN(C(=O)c2ccc(F)c(F)c2)[C@@H]3C)n1 [Compound 9, (R)-(3,4-difluorophenyl)(8-methyl-3-(3-methyl-1,2,4-thiadiazol-5-yl)-5,6-dihydro-[1,2,4]triazolo[4,3-a]pyrazin-7(8H)-yl)methanone]	significantly suppressed circulating LH levels	
CCc1noc(-c2nnc3n2CCN(C(=O)c2ccc(F)cc2)[C@@H]3C)n1 [Compound 13, (R)-(3-(3-ethyl-1,2,4-oxadiazol-5-yl)-8-methyl-5,6-dihydro-[1,2,4]triazolo[4,3-a]pyrazin-7(8H)-yl)(4-fluorophenyl)methanone]	significantly suppressed circulating LH levels	
Cc1nsc(-c2nnc3n2CCN(C(=O)c2ccccc2)[C@@H]3C)n1 [Compound 20, (R)-(8-methyl-3-(3-methyl-1,2,4-thiadiazol-5-yl)-5,6-dihydro-[1,2,4]triazolo[4,3-a]pyrazin-7(8H)-yl)(phenyl)methanone]	significantly suppressed circulating LH levels	
CCc1noc(-c2nnc3n2CCN(C(=O)c2ccc(-c4cccs4)cc2)[C@@H]3C)n1 [Compound 30, (R)-(3-(3-ethyl-1,2,4-oxadiazol-5-yl)-8-methyl-5,6-dihydro-[1,2,4]triazolo[4,3-a]pyrazin-7(8H)-yl)(4-(thiophen-2-yl)phenyl)methanone]	significantly suppressed circulating LH levels	
